Test results reported in paper doi:10.1101/2025.11.18.689169v1 (bioRxiv, 2025).

Assays:
[1] = test system: 4T1 mCherry mammary tumors; test: Biodistribution by ICG fluorescence of tissue homogenates; assay type: in vivo, Balb/c mice; conditions: 50 nmole intravenous, tissue homogenates 2 days after injection
[2] = test system: 4T1 mouse breast cancer cells; test: Cellular uptake, confocal microscopy; assay type: cell-based; conditions: 4T1 cells, 10 µM ICG labeled PAs, 2 hours, 37°C, confocal microscope
[3] = test system: 4T1 mCherry mammary tumors; test: Live IVIS imaging of tumor accumulation and tumor-to-background ratio; assay type: in vivo, Balb/c mice; conditions: 50 nmole intravenous, after background cleared over time, day 2
[4] = free ICG; cited from earlier work

Molecule | tumor to liver ratio [1] | cellular uptake / membrane retention [2] | tumor-to-background ratio (TBR) [3] | blood circulation half-life [4] [min]
GGGHGDCDD [C18] | ~3.3 | significant retention in the membrane | > 10 | –
GGGHGDCDD [C16] | – | significant retention in the membrane | > 10 | –
GGGHGDCDD [C12] | – | – | 6 | –
CC1(C)C(/C=C/C=C/C=C/C=C2\N(CCCCS(=O)(=O)O)c3ccc4ccccc4c3C2(C)C)=[N+](CCCCS(=O)(=O)[O-])c2ccc3ccccc3c21 [ICG, indocyanine green] | – | – | – | < 5
